“Also recorded” adds a separate entry of the source. Counter-ions that a name gives are not always drawn.
Legend:
[1] = system: female Drosophila; conditions: 400 μM, high-fat diet; cited from earlier work
[2] = system: CMPs; experiment: OCR of CMPs in glucose-restricted medium from old mice fed CRMs with or without NAD-precursor; type: in vivo; conditions: old mice (22-24 months), 2 weeks, glucose depletion, FIG. 15
Method: FIG. 15—Old (22-24 months old) mice were exposed for 2 weeks to the indicated diet: ad libitum (AL), Metformin (met), NAD-precursor (NR), NRM—combination of NR plus Metformin. Curves show respirometry analysis of the OCR of freshly isolated CMPs. The OCRs were continuously measured for 12h in freshly isolated CMPs grown in glucose-restricted medium (1 mM=R).
To test whether NAD precursor supplementation would cooperate with specific CRMs that mimic a certain sub-pathway induced by CRD, different classes of CRMs were employed. We tested the combined effects of NAD supplementation with • (a) Metformin—a CRM, which induces mitochondrial stress • (b) Pterostilbene—a CRM which induces Sirtuin-dependent stress responses including autophagy • (c) Spermidine—a CRM, which induces autophagy (ad ownstream target of sirtuins (see above)
Old mice (22-24 months) were fed with CRMs (a-c) with or without combination with NAD-precursor supplementation for 2 weeks before analysis. Freshly isolated hematopoietic cells (CMPs) were tested for a rescue in responsiveness to activate mitochondria in response to glucose depletion—a marker of metabolic improvement induced by CRD in young mice or by a combination of NAD precursor supplementation plus CRD in old mice. […]

[3] = system: stress response genes in MPPs (CD34+Flt3−LSK); experiment: NanoString analysis of stress response genes in MPPs pre-treated in vitro with NR followed by 3I or vehicle; type: cell-based, mice
Method: (C,D) NanoString analysis on the expression of stress response genes was carried out on 10,000 MPPs (CD34^+Flt3^−LSK) from young (3-4 months, n=4) and old mice (22-24 months, n=4). MPPs were pre-treated in culture with 1 mM NR or DMSO (Con) for 12h followed by treatment with 31 or Vehicle (Veh: 0.4% DMSO) for 12h under continuation of NR or Veh treatment. (C,D) Volcano plots for the NanoString analysis.
(G,H) NanoString analysis on the expression of stress response genes was carried out on 10,000 MPPs (CD34^+Flt3^−LSK) from young (3-4 months, n=4) and old mice (22-24 months, n=4). MPPs were pre-treated in vitro with 1 mM NR or DMSO (Con) for 12h followed by treatment with 31 or Vehicle (Veh: 0.4% DMSO) for 12h. The NR treatment was continued for the time window of 12-24h. (G, H) Volcano plots on the NanoString analysis of stress response genes.
(§1) To test the hypothesis that NAD(P) availability limits the potential of HSPCs from old mice to respond to changes in nutrient availability, freshly isolated HSCs from young and old mice were exposed to inhibitors of mitochondrial nutrient uptake.
Measuring of RNA expression by NanoString was done according to our previous publication (Chen et al., 2019) and according to manufacturer protocol (NanoString technologies). In brief, 1×10^4 cells were lysed in 2 μL of lysis/binding solution (Applied Biosystems, 8500G14). The cell lysate was then used for hybridization reaction as following: 2 μL of cell lysate was mixed with 5 μL of nCounter hybridization buffer (NanoString), 2 μL of Core Tagset, 2 μL of extension Tagset, 0.5 μL of […] Probe A working pool, 0.5 μL of […] probe A extension Pool, 0.5 μL of 3 nm Probe B working pool, and 0.5 μL of 3 nM Probe B extension pool (from IDT technologies). 2 μL of Nuclease-free water was added to each reaction to reach a final volume of 15 μL. The reaction mixture was prepared in Strip tubes (from NanoString technologies). Then it was incubated at 67° C. using thermal cycler (Masterycler from Eppendorf) for 16 h. Afterward, the Nanostring chemistry was processed automatically using nCounter prep-station 5s (NanoString technologies) according to manufacturer protocol. Directly after the run, the nCounter Cartridge was loaded into nCounter digital analyzer 5s (NanoString technologies). For NanoString analysis on young and old mice exposed to DR or AL food, freshly FACS-Sorted MPPs (CD34^+Flt3^− LSK) were used. […] Cells from NR treatment and DMSO were divided into 2 halves and further treated with 3I (6 μM each) or DMSO as control. The cells were harvested for NanoString analysis as described above. Data analysis was done after background correction using nSolver advanced analysis software (v.4) and (R software v 3.3.2.). The following housekeeping genes were used for normalization: ActB, B2M, Gapdh, Gusb, Hprt, PGK1, Polr1b, Polr2a, Ppia, Rpl19, Sdha, and Tbp. Heatmaps and volcano plots was done using GraphPad prism software version 8.

[4] = system: CMPs; experiment: Respirometry (OCR) of freshly isolated CMPs from mice fed NR, DR or NR/DR; type: in vivo; conditions: 2 weeks
Excerpt: (§2) FIG. 13 (A-J) Young (2-3 month old) and old (22-24 month old) mice were exposed for 2 weeks to the indicated diet: ad libitum diet (AL), dietary restriction (DR=CRD), NAD-precursor supplementation (=NR), NR/DR—combination of NR plus DR.
(A-C) Respirometry analysis of the OCR of freshly-isolated CMPs in: (A) young and (B) old mice; (C) Quantification of OCR at basal level of the indicated groups as measured in (A,B, before oligomycin-application, marked by 0). N=4-6 mice per group. The Data were normally distributed (Shapiro-Wilk test) after log transformation. Error bars represent SD. P-values were calculated on average data of 4 time points using 2-way ANOVA with Tukey's multiple comparisons test on log-transformed data.
To experimentally test whether mitochondrial enhancement could re-empower DR (=CRD) in old mice, young and old mice were exposed to NAD+ supplementation by feeding of nicotinamide riboside (NR). In addition, the mice were exposed for 2 weeks to DR (=CRD), starting 1 week after NR pre-feeding, or continuous AL feeding.

[5] = system: 22-24 months old female mice; experiment: Lifespan (Kaplan Meier survival) of old mice under long-term dietary treatments; type: in vivo
Method: (B) Kaplan Meier survival analysis in cohorts of mice that were exposed to DR-alone, NR-alone, or NR/DR co-treatment compared to AL-feeding. Dietary interventions were started at the age of 22-24 months and continued over lifetime. […] P-values were calculated using Mantel-Cox test. The p-values that are shown next to the intervention naming refer to the comparison of the intervention to the AL-diet group.
To test effects of these dietary intervention on organism lifespan, 4 cohorts of 22-24 months old female mice (n=14-15 mice per group) were exposed to long-term treatments (until the end of life or the occurrence of humane endpoints).

[6] = system: CMPs; experiment: Seahorse basal oxygen consumption rate after NR pre-treatment followed by 3I; type: cell-based, mice; conditions: FIG. 12F
Method: (F) Basal oxygen consumption rate in CMPs from young (3-5 months, n=4) and old mice (22-24 months, n=4). Cells were either pretreated with 1 mM […] (NR) or DMSO (Con) for 12 h. This was followed by treatment for 12h in vitro to combination of 3 inhibitors of mitochondrial nutrient uptake (by BPTES=6 uM, Etomoxir=6 uM, UK5099=6 uM) or DMSO as control. The data were not normally distributed (Shapiro-Wilk test) and the Mann-Whitney test was used for the calculation of p-values.
as §1
For CMP and GMP 80,000 cells were used. For MPP 60,000 cells were used.

[7] = system: HSCs (CD150+CD34−LSK); experiment: Competitive transplantation of HSCs from dietary cohorts, repopulation capacity (peripheral blood chimerism); type: in vivo; conditions: HSCs from young mice; 2 weeks intervention; FIG. 14A
[8] = system: old mice; conditions: previous studies; cited from earlier work
[9] = system: HSCs; experiment: HSC culture with NR pre-treatment followed by 3I, number of CD48−Sca1+ cells; type: cell-based; conditions: NR-treated (1 mM) HSCs from old mice; 3I 6 μM each; FIG. 12E
Excerpt: The NR treatment was continued on das 3 and 4. […] N=3 HSC cultures derived from 3 individual mice per group. […] Error bars depict SD.
as §1
For testing the response of HSPCs to the blocking of glycolysis or mitochondrial ATP synthesis, 2-DG (Sigma, D8375) or oligomycin A (Sigma, 75351) were used. For the inhibition of nutrient uptake into mitochondria, three inhibitors (3I) were used. BPTES (Sigma, SML0601) blocks […] uptake, Etomoxir (Sigma E1905) blocks Fatty acids uptake, and UK5099 (Sigma PZ0160) blocks pyruvate uptake. The final concentration of each inhibitor in the culture medium is 6 μM. Same amount of DMSO was used in the medium as control. For determination of cell number after NR treatment 500 HSCs from young (2-3 months) and old (22-24 months) were pre-incubated either with 1 mM NR (provided by Prof. Johan Auwerx Lab) or DMSO as control for 2 days followed by 2 days treatment with the inhibitors (BPTES, Etomoxir and UK5099, 6 μM each) or same amount of DMSO as control. The cells were then analyzed by BD LSR fortessa.

[10] = system: stress response genes in HSCs; experiment: NanoString mRNA analysis of stress response genes in freshly isolated HSCs from dietary cohorts; type: in vivo, mice; conditions: 2 weeks, listed as NR-alone
Excerpt: as §2
(G-K) NanoString mRNA analysis of stress response genes in freshly-isolated HSCs from young (Y) and old (O) mice that were exposed to ad libitum (AL) or dietary restriction (DR diet for 2 weeks) of NAD-precursor treatment (NR) or a combination of NR plus DR (=NR/DR). The dotted lines represent the q-value of 0.05.
To analyze whether the NR/DR-mediated re-installment of mitochondrial metabolic plasticity in HSCs from old mice could rescue the induction of metabolic stress signals, freshly isolated HSCs from 2-week dietary cohorts were analyzed with the same NanoString assay as described above.
Measuring of RNA expression by NanoString was done according to our previous publication (Chen et al., 2019) and according to manufacturer protocol (NanoString technologies). In brief, 1×10^4 cells were lysed in 2 μL of lysis/binding solution (Applied Biosystems, 8500G14). […]

[11] = Y.Con + 3I versus O.NR + 3I, MPPs, 12 h pre-treatment with NR

Structure (SMILES): Oc1ccc(C=Cc2cc(O)cc(O)c2)cc1 [resveratrol, Resveratrol]
- extension of the lifespan [1]: 10%-15%

Structure (SMILES): CN(C)C(=N)N=C(N)N [metformin, Metformin-Hydrochlorid, reference compound]
- synergistic effects of NAD precursor supplementation combined with the CRM on inducing mitochondria activity (OCR) [2]: synergistic effects on inducing mitochondria activity

Structure (SMILES): NC(=O)c1ccc[n+]([C@@H]2O[C@H](CO)[C@@H](O)[C@H]2O)c1 [NR, Nicotinamide riboside]
- IDH1-mRNA LogZFC [3, 11]: −2.62
- Ino1-mRNA LogZFC [3, 11]: −1.78
- Myh9-mRNA LogZFC [3, 11]: −2.45
- NRas-mRNA LogZFC [3, 11]: −2.16
- Pds5A-mRNA LogZFC [3, 11]: −3.08
- atp5a1-mRNA LogZFC [3, 11]: 1.11
- unspliced XBP1-mRNA LogZFC [3, 11]: 2.56
- changes in the transcription of stress response genes in old vs. young cells ([3]; cells exposed to 3I-treatment, 1 mM NR, FIG. 12H): reverted changes in the transcription of stress response genes
- pre-existing, age-related changes in transcription of stress response genes ([3]; old vs. young cells not exposed to 3I-treatment, 1 mM NR, FIG. 11C-E): no significant effects
- mitochondrial respiration compared to AL-fed mice ([4]; old mice, FIG. 13B,C): neither of the single treatments was sufficient to induce mitochondrial respiration
- mitochondrial respiration compared to AL-fed mice ([4]; young mice, FIG. 13A,C): significant increases in mitochondrial respiration
- increase in median life expectancy compared to AL ([5]; late-life treatment of old mice, this study): 10%
- lifespan compared to AL-fed control mice ([5]; treatment started at 22-24 months, continued over lifetime, FIG. 14B): slight increases in lifespan
- response to 3I-treatment: oxidative metabolism ([6]; NR-treated (1 mM) cells from old mice, 3I 6 uM each): reduction of oxidative metabolism
- oxidative metabolism (basal oxygen consumption rate) ([6]; cells from old mice, 1 mM NR): rescued oxidative metabolism to a similar level as observed in HSCs from young mice
- repopulation capacity of HSCs [7]: increased the repopulation capacity
- increase in lifespan when applied to old mice [8]: 6.9%
- response to 3I-treatment: cell proliferation [9]: suppression of cell proliferation
- induction of metabolic stress signals (stress response genes) ([10]; HSCs from young mice, FIG. 13G): induction of health-promoting stress response genes in young mice; also recorded: induced metabolic stress signals
- induction of metabolic stress signaling (stress response genes) ([10]; HSCs of old mice, FIG. 13I,K): neither of the single treatments, NR-alone (FIG. 13I) or DR-alone (FIG. 13J) was able to induce metabolic stress signaling
